Each structure is given as a SMILES string. In brackets after ≈: the same amount, converted by molar mass.

Format in all cases: cell-based
Experiment [1] concerns Staphylococcus aureus ATCC29213. The experiment can be described thus: MIC, microbroth dilution. The settings on record: Staphylococcus aureus ATCC29213, rifS; read-out: Antimicrobial activity (MIC). Background: Broth dilution looks for growth in wells or tubes with falling amounts of substance.
Experiment [2] has as its system Staphylococcus aureus ATCC29213 rpoB^D417Y. The experiment can be described thus: microbe, parasite or virus in culture. As to conditions: Staphylococcus aureus ATCC29213 rpoB^D417Y, rifR; read-out: Antimicrobial activity (MIC). How it is done: (§1) Representative compounds were assayed for antimicrobial activity as follows: Minimum Inhibitory Concentrations (“MICs”) were determined by the microbroth dilution method as per NCCLS guidelines (National Committee for Clinical Laboratory Standards. 2000. Methods for dilution antimicrobial susceptibility tests for bacteria that grow aerobically, 5th ed. M7-A5. National Committee for Clinical Laboratory Standards, Wayne, Pa.), except that all growth incubations were conducted at 37° C. Bacterial cultures were tested in the following bacteriological media: S. aureus, S. epidermidis, and E. coli in Cation-Adjusted Mueller-Hinton Broth, S. pneumoniae in THY Broth supplemented with 1 mg/mL catalase under 5% CO2 atmosphere, S. pyogenes in THY Broth, E. faecalis in BHI Broth, H. influenzae in BHI Broth supplemented with 0.75 μL of 1 mg/mL NAD and 150 μL of 1 mg/ml hematin per 5 mL, and M. smegmatis in Middlebrook Broth plus ADC Enrichment.
(§2) S. aureus ATCC 29213 RpoB^H418Y is a rifampin-resistant strain with a mutation in the RpoB gene of RNA polymerase. […] S. aureus EN1252a gyrA^S84L grlA^S80F is a quinolone-resistant strain due to double gene mutations of DNA gyrase and topoisomerase IV.

The subject of experiment [3] is Staphylococcus aureus ATCC29213 rpoB^H418Y. Description: microbe, parasite or virus in culture. The settings on record: Staphylococcus aureus ATCC29213 rpoB^H418Y, rifR; read-out: Antimicrobial activity (MIC). How it is done: as §1, §2
Experiment [4] has as its system Staphylococcus aureus EN1252a gyrA^S84L grlA^S80F. Description: microbe, parasite or virus in culture. As to conditions: Staphylococcus aureus EN1252a gyrA^S84L grlA^S80F, cipR; read-out: Antimicrobial activity (MIC). On the procedure:
as §1, §2

Experiment [5] has as its system Staphylococcus epidermidis ATCC12228. The experiment can be described thus: MIC, microbroth dilution. The settings on record: Staphylococcus epidermidis ATCC12228, rifS; read-out: Antimicrobial activity (MIC).
The test system of experiment [6] is Streptococcus pneumoniae ATCC6303. Description: MIC, microbroth dilution. The settings on record: Streptococcus pneumoniae ATCC6303, rifS; read-out: Antimicrobial activity (MIC).
Experiment [7] relates to Streptococcus pyogenes ATCC19615. The experiment can be described thus: MIC, microbroth dilution. The settings on record: Streptococcus pyogenes ATCC19615, rifS; read-out: Antimicrobial activity (MIC).
The test system of experiment [8] is Enterococcus faecalis ATCC29212. The experiment can be described thus: MIC, microbroth dilution. The settings on record: Enterococcus faecalis ATCC29212, rifS; read-out: Antimicrobial activity (MIC).
In experiment [9] the test system is Haemophilus influenzae ATCC10211. The experiment can be described thus: MIC, microbroth dilution. As to conditions: Haemophilus influenzae ATCC10211, rifS; read-out: Antimicrobial activity (MIC).
Experiment [10] deals with Escherichia coli ATCC25922. The experiment can be described thus: MIC, microbroth dilution. The settings on record: Escherichia coli ATCC25922, rifS; read-out: Antimicrobial activity (MIC).
Experiment [11] relates to Mycobacterium smegmatis ATCC700084. Description: MIC, microbroth dilution. As to conditions: Mycolicibacterium smegmatis; Mycobacterium smegmatis ATCC700084, rifS; read-out: Antimicrobial activity (MIC).

Turning to `CO[C@H]1/C=C/O[C@@]2(C)Oc3c(C)c(O)c4c(c3/C2=N/OCCN2CCN(c3cc5c(cc3F)c(=O)c(C(=O)O)cn5C3CC3)CC2)C(=O)C=C(NC(=O)/C(C)=C\C=C\[C@H](C)[C@H](O)[C@@H](C)[C@@H](O)[C@@H](C)[C@H](OC(C)=O)[C@@H]1C)C4=O` [Example 15], the MIC in [1] is 0.004 to 0.5 µg/mL (≈ 0.00374 to 0.468 µM); in experiment [2], 0.25 to 32 µg/mL (≈ 0.234 to 30 µM); in [3] it was 0.125 to 16 µg/mL (≈ 0.117 to 15 µM); in experiment [4], 0.004 to 0.5 µg/mL (≈ 0.00374 to 0.468 µM); in [5], 0.0005 to 0.063 µg/mL (≈ 0.000468 to 0.059 µM); in [6], 0.0002 to 0.125 µg/mL (≈ 0.000187 to 0.117 µM). Further, the MIC in experiment [7] was in the range of 0.0005 to 0.063 µg/mL (≈ 0.000468 to 0.059 µM); in [8] it was 2 to 32 µg/mL (≈ 1.87 to 30 µM); in experiment [9], 0.03 to 2 µg/mL (≈ 0.0281 to 1.87 µM); in [10], 0.125 to 8 µg/mL (≈ 0.117 to 7.49 µM); in experiment [11], 0.5 to 64 µg/mL (≈ 0.468 to 59.9 µM).
For `CO[C@H]1/C=C/O[C@@]2(C)Oc3c(C)c(O)c4c(c3/C2=N/OCCN2CCN(c3ccc(N5C[C@H](CNC(C)=O)OC5=O)cc3F)CC2)C(=O)C=C(NC(=O)/C(C)=C\C=C\[C@H](C)[C@H](O)[C@@H](C)[C@@H](O)[C@@H](C)[C@H](OC(C)=O)[C@@H]1C)C4=O` [Example 16], the MIC in experiment [1] was in the range of 0.004 to 0.5 µg/mL (≈ 0.00373 to 0.466 µM); in [2], 0.25 to 32 µg/mL (≈ 0.233 to 29.8 µM); in experiment [3], 0.125 to 16 µg/mL (≈ 0.116 to 14.9 µM); in experiment [4] it was 0.004 to 0.5 µg/mL (≈ 0.00373 to 0.466 µM); in [5], 0.0005 to 0.063 µg/mL (≈ 0.000466 to 0.0587 µM); in [6], 0.0002 to 0.125 µg/mL (≈ 0.000186 to 0.116 µM). In addition, the MIC in [7] lay in the range of 0.0005 to 0.063 µg/mL (≈ 0.000466 to 0.0587 µM); in experiment [8] it was 2 to 32 µg/mL (≈ 1.86 to 29.8 µM); in experiment [9] it was 0.03 to 2 µg/mL (≈ 0.028 to 1.86 µM); in experiment [10] it was 0.125 to 8 µg/mL (≈ 0.116 to 7.45 µM); in experiment [11] it was 0.5 to 64 µg/mL (≈ 0.466 to 59.6 µM).
In the case of `CO[C@H]1/C=C/O[C@@]2(C)Oc3c(C)c(O)c4c(c3/C2=N/OCCN2CCN(c3ccccn3)CC2)C(=O)C=C(NC(=O)/C(C)=C\C=C\[C@H](C)[C@H](O)[C@@H](C)[C@@H](O)[C@@H](C)[C@H](OC(C)=O)[C@@H]1C)C4=O` [Example 17], the MIC in experiment [1] was 0.004 to 0.5 µg/mL (≈ 0.00444 to 0.556 µM); in experiment [2], 0.25 to 32 µg/mL (≈ 0.278 to 35.6 µM); in experiment [3], 0.125 to 16 µg/mL (≈ 0.139 to 17.8 µM); in [4], 0.004 to 0.5 µg/mL (≈ 0.00444 to 0.556 µM); in experiment [5], 0.0005 to 0.063 µg/mL (≈ 0.000556 to 0.07 µM); in experiment [6], 0.0002 to 0.125 µg/mL (≈ 0.000222 to 0.139 µM). For the same compound, the MIC was in the range of 0.0005 to 0.063 µg/mL (≈ 0.000556 to 0.07 µM) in [7]; 2 to 32 µg/mL (≈ 2.22 to 35.6 µM) in [8]; 0.03 to 2 µg/mL (≈ 0.0333 to 2.22 µM) in experiment [9]; 0.125 to 8 µg/mL (≈ 0.139 to 8.89 µM) in [10]; 0.5 to 64 µg/mL (≈ 0.556 to 71.1 µM) in [11].
For the compound `CO[C@H]1/C=C/O[C@@]2(C)Oc3c(C)c(O)c4c(c3/C2=N/OCCN2CCN(c3cccc(C(F)(F)F)c3)CC2)C(=O)C=C(NC(=O)/C(C)=C\C=C\[C@H](C)[C@H](O)[C@@H](C)[C@@H](O)[C@@H](C)[C@H](OC(C)=O)[C@@H]1C)C4=O` [Example 18, 11-Deoxy-11-{2-[4-(3-trifluoromethyl-phenyl)-piperazin-1-yl]ethoxyimino}rifamycin S], the MIC was 0.004 to 0.5 µg/mL (≈ 0.00414 to 0.517 µM) in experiment [1]; 0.25 to 32 µg/mL (≈ 0.259 to 33.1 µM) in experiment [2]; 0.125 to 16 µg/mL (≈ 0.129 to 16.5 µM) in experiment [3]; 0.004 to 0.5 µg/mL (≈ 0.00414 to 0.517 µM) in experiment [4]; 0.0005 to 0.063 µg/mL (≈ 0.000517 to 0.0651 µM) in experiment [5]; 0.0002 to 0.125 µg/mL (≈ 0.000207 to 0.129 µM) in experiment [6]. The MIC in experiment [7] lay within 0.0005 to 0.063 µg/mL (≈ 0.000517 to 0.0651 µM); in [8], 2 to 32 µg/mL (≈ 2.07 to 33.1 µM); in experiment [9] it was 0.03 to 2 µg/mL (≈ 0.031 to 2.07 µM); in experiment [10], 0.125 to 8 µg/mL (≈ 0.129 to 8.27 µM); in [11], 0.5 to 64 µg/mL (≈ 0.517 to 66.2 µM).
Consider `CO[C@H]1/C=C/O[C@@]2(C)Oc3c(C)c(O)c4c(c3/C2=N/OCCN2CCN(S(=O)(=O)c3cccc5ccncc35)CC2)C(=O)C=C(NC(=O)/C(C)=C\C=C\[C@H](C)[C@H](O)[C@@H](C)[C@@H](O)[C@@H](C)[C@H](OC(C)=O)[C@@H]1C)C4=O` [Example 19, 11-Deoxy-11-{2-[4-(isoquinoline-8-sulfonyl)-piperazin-1-yl]-ethoxyimino}rifamycin S], for which the MIC was in the range of 0.004 to 0.5 µg/mL (≈ 0.00394 to 0.493 µM) in [1]; 0.25 to 32 µg/mL (≈ 0.247 to 31.6 µM) in [2]; 0.125 to 16 µg/mL (≈ 0.123 to 15.8 µM) in [3]; 0.004 to 0.5 µg/mL (≈ 0.00394 to 0.493 µM) in [4]; 0.0005 to 0.063 µg/mL (≈ 0.000493 to 0.0621 µM) in experiment [5]; 0.0002 to 0.125 µg/mL (≈ 0.000197 to 0.123 µM) in experiment [6]. Further, the MIC in experiment [7] lay in the range of 0.0005 to 0.063 µg/mL (≈ 0.000493 to 0.0621 µM); in [8] it was 2 to 32 µg/mL (≈ 1.97 to 31.6 µM); in [9], 0.03 to 2 µg/mL (≈ 0.0296 to 1.97 µM); in [10], 0.125 to 8 µg/mL (≈ 0.123 to 7.89 µM); in experiment [11], 0.5 to 64 µg/mL (≈ 0.493 to 63.1 µM).

These data come from patent publication US7256187B2, “Rifamycin C-11 oxime derivatives effective against drug-resistant microbes” (Cumbre Pharmaceuticals Inc., priority 2004, dated 2007).
